Assay results as given in patent US9452154B2, “Methods for treating HCV” (Gilead Sciences, Inc., priority 2010, dated 2016).
Values joined by “and” are separate entries in the source; they are usually repeats but may differ in a detail not shown here. Equal entries are not always repeated. Where two headings read alike, the source gives them in different places.

Experiments:
[1] = system: Genotype 1b replicon cells; assay: Biological Example 6: compound concentration required to suppress replicon RNA by 1-1.5 log over 6 days (QRT-PCR); type: cell-based, HCV; conditions: 6 day assay
Procedure: Flasks were incubated at 37° C., media and compounds were refreshed every two days. After 6 days of incubation the replicon cells were collected for RNA extraction and replicon RNA QRT-PCR analysis.

HCV 1b replicon system = assay: Biological Example 5: antiviral combination studies with Compound 6 (MacSynergy II); type: cell-based; conditions: in combination with Compound 6
[2] = Drug-drug interaction: exposure on co-administration with Compound 2
GT-1b Huh-lunet cells = assay: Biological Example 4: antiviral combination studies with Compound 5 (MacSynergy II); type: cell-based, HCV; conditions: in combination with Compound 5, 1b replicon cells
HCV genotype 1a replicon [3] = assay: Biological Example 3: antiviral combination studies with Compound 4 (MacSynergy II); conditions: in combination with Compound 4
[4] = system: GT1b and GT1a mutant replicons; assay: Biological Example 8: summary of cross resistance of mutant replicons; type: cell-based, HCV
Procedure: (§1) GT1b and GT1a replicons carrying Renilla Luciferase reporter were used to generate the mutant replicons. The mutations were introduced into the replicon construct by site-directed mutagenesis and confirmed by sequencing. Mutant replicon RNAs were generated from DNA by in vitro transcription and transfected into Huh-7 Lunet or C1 cells
(§2) Compounds were serially diluted 1:3 in 100% DMSO (Sigma). These serial dilutions were added to the cells at a 1:200 dilution to achieve a final concentration of 0.5% DMSO in a total volume of 200 μL. […] EC50 values were calculated using Prism.
(§3) For comparison, a fold change of 0-3 is considered “sensitive”, a fold change of 3-10 is considered “low”, a fold change of 10-50 is considered “medium” and a fold change of greater than […] is considered “high”.

[5] = Biological Example 3: cytotoxicity (calcein AM), CC50; type: cell-based; conditions: human, Huh-7 cells carrying a HCV genotype 1a replicon; HCV genotype 1a replicon cells; calcein AM
Procedure: The HCV replicon assay was a multiplex assay which can assess both cytotoxicity and anti-replicon activity from the same well. The CC50 assay was performed first.
The cytotoxicity effect was determined by calcein AM conversion to fluorescent product. The percent cytotoxicity was calculated by equation 1:
(§4) [formula] where XC is the fluorescence signal from the compound-treated well; MB is the average fluorescence signal from puromycin-treated wells; MD is the average fluorescence signal from DMSO-treated wells. The anti-HCV replication activity was determined by the luminescence signal generated from the reporter renilla luciferase of the HCV replicon. The percent inhibition on HCV replicon was calculated using equation 1, where XC is the luminescence signal from compound-treated well; MB is average luminescence signal from the ITMN-191-treated wells; MD is the average luminescence signal from DMSO-treated wells.
(§5) Both CC50 and EC50 values were obtained using Pipeline Pilot 5.0 software package (Accelrys, San Diego, Calif.) by nonlinear regression fitting of experimental data to equation 2: […]

[6] = system: Huh-7 cells carrying a HCV genotype 1a replicon; assay: Biological Example 3: cytotoxicity in combination studies (MacSynergy II)
HCV genotype 1a replicon [7] = assay: Biological Example 3: HCV genotype 1a replicon assay, EC50; type: cell-based; conditions: Hepatitis C virus, 72 h, 3 days, read-out: EC50
Procedure: The HCV genotype 1a replicon cell line used in this study was described previously. The cells were grown in cell culture medium containing Dulbecco's Modified Eagle Medium (DMEM) with GlutaMAX (Gibco, Carlsbad, Calif., Cat#10569-044), supplemented with 10% FBS (HyClone, Logan, Utah, Cat#SH30071.03), 100 Units/mL Penicillin, 100 μg/mL Streptomycin (Gibco, Carlsbad, Calif., Cat#15140-122), and 0.1 mM non-essential amino acids (Gibco, Carlsbad, Calif., Cat#11140-050). Replicon cells were maintained in 0.5 mg/mL Geneticin (Invitrogen, Carlsbad, Calif., Cat#10131-035) to prevent the loss of HCV replicon. The cells were passaged every 3-4 days before reaching confluency.
as §4, §5

[8] = system: NS3 GT1b mutant replicons; type: cell-based, HCV
Procedure: as §1, §2, §3

[9] = system: NS3 GT1a mutant replicons; type: cell-based, HCV
Procedure: as §1, §2, §3

[10] = human; 800 mg/day; cited from earlier work
[11] = all single NS3 PI-resistant mutants
[12] = triple class mutants that confer resistance to PI, NS5A and Compound 1

For Fc1ccccc1-c1nc2ccn(Cc3ccc(-c4ccc(C(F)(F)F)cc4C(F)(F)F)nn3)cc-2n1 [Compound 1, 5-((6-(2,4-bis(trifluoromethyl)phenyl)pyridazin-3-yl)methyl)-2-(2-fluorophenyl)-5H-imidazo[4,5-c]pyridine], the “Compound concentration able to induce replicon RNA 1-1.5 log drop” value [1] was 10 nM, the “Antagonism Volume” value (HCV 1b replicon system) was −17 ± 0.7 nM^2 and the Interaction (HCV 1b replicon system) was “Minor Synergy”. The “Synergy Volume” value (HCV 1b replicon system) was 34 nM^2 and 34 ± 9.9 nM^2, the “increase of exposure when combined with Compound 2” value [2] was 2-3 × and the “Antagonism Volume” value (GT-1b Huh-lunet cells) was 0 ± 0 nM^2. For the same molecule, the “Synergy Volume” value (GT-1b Huh-lunet cells) was 70 ± 26 nM^2, the “Antagonism Volume” value (HCV genotype 1a replicon [3]) was −1 ± 2 nM^2% and the “Synergy Volume” value (HCV genotype 1a replicon [3]) was 34 ± 26 nM^2%. For the same molecule, the susceptibility of mutants [4, 11] was “full susceptibility”, the CC50 at 3 days [5] was over 44.4 µM and the “Antagonism Volume (cytotoxicity)” value ([6]; in combination with Compound 4) was 0 ± 1 nM^2%. The “Interaction (cytotoxicity)” value ([6]; in combination with Compound 4) was “Additivity (Additivity: ≦25 and >−25 nM^2%)”, the “Synergy Volume (cytotoxicity)” value ([6]; in combination with Compound 4) was 13 ± 11 nM^2% and the EC50 (HCV genotype 1a replicon [7]) was 0.019 ± 0.008 µM.
For CC(C)OC(=O)[C@H](C)N[P@](=O)(OC[C@H]1O[C@@](C#N)(c2ccc3c(N)ncnn23)[C@](C)(O)[C@@H]1OC(=O)C(C)C)Oc1ccccc1 [Compound 4], the “Compound concentration able to induce replicon RNA 1-1.5 log drop” value [1] was 1000 nM, the “fold change in EC50 vs wild-type GT1b” value ([8]; mutant A156D) was 0.4 fold and the “fold change in EC50 vs wild-type GT1b” value ([8]; mutant A156G) was 0.6 fold. The “fold change in EC50 vs wild-type GT1b” value ([8]; mutant A156T) was 0.9 fold, the “fold change in EC50 vs wild-type GT1b” value ([8]; mutant A156V) was 0.6 fold and the “fold change in EC50 vs wild-type GT1b” value ([8]; mutant D168A) was 1.0 fold. For the same molecule, the “fold change in EC50 vs wild-type GT1b” value ([8]; mutant D168E) was 1.0 fold, the “fold change in EC50 vs wild-type GT1b” value ([8]; mutant D168E + L31V + Y448H) was 1.1 fold and the “fold change in EC50 vs wild-type GT1b” value ([8]; mutant D168E + Y93H + Y448H) was 0.9 fold. The “fold change in EC50 vs wild-type GT1b” value ([8]; mutant D168E + Y448H) was 0.7 fold, the “fold change in EC50 vs wild-type GT1b” value ([8]; mutant D168G) was 0.7 fold and the “fold change in EC50 vs wild-type GT1b” value ([8]; mutant D168H) was 1.7 fold. The “fold change in EC50 vs wild-type GT1b” value ([8]; mutant D168H + C445F) was 0.5 fold, the “fold change in EC50 vs wild-type GT1b” value ([8]; mutant D168L + C445F) was 0.3 fold and the “fold change in EC50 vs wild-type GT1b” value ([8]; mutant D168N) was 1.2 fold. The “fold change in EC50 vs wild-type GT1b” value ([8]; mutant D168T) was 1.4 fold, the “fold change in EC50 vs wild-type GT1b” value ([8]; mutant D168V) was 0.9 fold and the “fold change in EC50 vs wild-type GT1b” value ([8]; mutant D168V + C445F) was 0.7 fold. The “fold change in EC50 vs wild-type GT1b” value ([8]; mutant D168V + L31V + Y448H) was 0.6 fold, the “fold change in EC50 vs wild-type GT1b” value ([8]; mutant D168V + Y93H + Y448H) was 0.8 fold and the “fold change in EC50 vs wild-type GT1b” value ([8]; mutant D168V + Y448H) was 0.9 fold. The “fold change in EC50 vs wild-type GT1b” value ([8]; mutant D168Y) was 0.5 fold, the “fold change in EC50 vs wild-type GT1b” value ([8]; mutant L31V + D168E) was 1.6 fold and the “fold change in EC50 vs wild-type GT1b” value ([8]; mutant L31V + D168V) was 1.1 fold. The “fold change in EC50 vs wild-type GT1b” value ([8]; mutant R155C) was 0.8 fold, the “fold change in EC50 vs wild-type GT1b” value ([8]; mutant R155G) was 0.2 fold and the “fold change in EC50 vs wild-type GT1b” value ([8]; mutant R155K) was 0.6 fold. For the same molecule, the “fold change in EC50 vs wild-type GT1b” value ([8]; mutant R155L) was 0.7 fold, the “fold change in EC50 vs wild-type GT1b” value ([8]; mutant R155Q) was 0.8 fold and the “fold change in EC50 vs wild-type GT1b” value ([8]; mutant R155W) was 0.5 fold. The “fold change in EC50 vs wild-type GT1b” value ([8]; mutant Y93H + D168E) was 1.3 fold, the “fold change in EC50 vs wild-type GT1b” value ([8]; mutant Y93H + D168V) was 1.0 fold and the “fold change in EC50 vs wild-type GT1a” value ([9]; mutant A156T) was 0.2 fold. The “fold change in EC50 vs wild-type GT1a” value ([9]; mutant D168A) was 0.9 fold, the “fold change in EC50 vs wild-type GT1a” value ([9]; mutant D168E) was 1.5 fold and the “fold change in EC50 vs wild-type GT1a” value ([9]; mutant D168G) was 0.8 fold. The “fold change in EC50 vs wild-type GT1a” value ([9]; mutant D168H) was 1.0 fold, the “fold change in EC50 vs wild-type GT1a” value ([9]; mutant D168N) was 1.0 fold and the “fold change in EC50 vs wild-type GT1a” value ([9]; mutant D168V) was 1.4 fold. For the same molecule, the “fold change in EC50 vs wild-type GT1a” value ([9]; mutant D168Y) was 1.0 fold, the “fold change in EC50 vs wild-type GT1a” value ([9]; mutant R155I) was 0.6 fold and the “fold change in EC50 vs wild-type GT1a” value ([9]; mutant R155K) was 0.7 fold. For the same molecule, the “fold change in EC50 vs wild-type GT1a” value ([9]; mutant R155K + L31M) was 0.4 fold, the “fold change in EC50 vs wild-type GT1a” value ([9]; mutant R155K + L31M + Y448H) was 0.6 fold and the “fold change in EC50 vs wild-type GT1a” value ([9]; mutant R155K + M28T) was 0.2 fold. The “fold change in EC50 vs wild-type GT1a” value ([9]; mutant R155K + M28T + Y448H) was 0.3 fold, the “fold change in EC50 vs wild-type GT1a” value ([9]; mutant R155K + Q30H + Y448H) was 0.9 fold and the “fold change in EC50 vs wild-type GT1a” value ([9]; mutant R155K + Q30R) was 0.9 fold. For the same molecule, the “fold change in EC50 vs wild-type GT1a” value ([9]; mutant R155K + Y93H) was 0.3 fold, the “fold change in EC50 vs wild-type GT1a” value ([9]; mutant R155K + Y488H (first line, r20)) was 0.7 fold and the “fold change in EC50 vs wild-type GT1a” value ([9]; mutant R155K + Y488H (second line, r26)) was 0.5 fold. For the same molecule, the “fold change in EC50 vs wild-type GT1a” value ([9]; mutant R155M) was 0.4 fold, the “fold change in EC50 vs wild-type GT1a” value ([9]; mutant R155S) was 0.2 fold and the “fold change in EC50 vs wild-type GT1a” value ([9]; mutant R155T) was 0.2 fold. The “fold change in EC50 vs wild-type GT1a” value ([9]; mutant R155W) was 0.7 fold, the “fold change in EC50 vs wild-type GT1a” value ([9]; mutant R155k + Q30H) was 0.6 fold and the susceptibility of mutants [4, 11] was “full susceptibility”. The susceptibility of mutants [4, 12] was “susceptible”, the CC50 at 3 days [5] was over 44.4 µM and the “Antagonism Volume (cytotoxicity)” value ([6]; in combination with Ribavirin) was −1 ± 2 μM^2%. The “Interaction (cytotoxicity)” value ([6]; in combination with Ribavirin) was “Additivity (Additivity: ≦25 and >−25 nM^2%)” and the “Synergy Volume (cytotoxicity)” value ([6]; in combination with Ribavirin) was 4 ± 3 μM^2%.
For NC(=O)c1ncn([C@@H]2O[C@H](CO)[C@@H](O)[C@H]2O)n1 [Ribavirin, 1-β-D-ribofuranosyl-1H-1,2,4-Triazole-3-carboxamide, reference compound], the “Antagonism Volume” value (HCV 1b replicon system) was −0.5 ± 0.1 nM^2, the Interaction (HCV 1b replicon system) was “Moderate Synergy” and the “Synergy Volume” value (HCV 1b replicon system) was 61 nM^2 and 61 ± 0.5 nM^2. For the same molecule, the “Antagonism Volume” value (GT-1b Huh-lunet cells) was −12 ± 9 nM^2, the Interaction (GT-1b Huh-lunet cells) was “Additive” and the “Synergy Volume” value (GT-1b Huh-lunet cells) was 12 ± 8 nM^2. For the same molecule, the “Antagonism Volume” value (HCV genotype 1a replicon [3]) was −43 nM^2% and −43 ± 20 nM^2%, the “Synergy Volume” value (HCV genotype 1a replicon [3]) was 1 ± 1 nM^2% and the susceptibility of mutants [4, 11] was “full susceptibility”. For the same molecule, the susceptibility of mutants [4, 12] was “susceptible”, the CC50 at 3 days [5] was over 88.8 µM and the steady-state plasma concentration [10] was 6 to 11 µM. It also gave an EC50 (HCV genotype 1a replicon [7]) of 36.5 ± 17.5 µM.
